What was measured:
[1] = biological target: T1, CypD (Homo sapiens, UniProt P30405); assay: CypD enzymatic assay (PPase-chymotrypsin coupled, suc-AAPF-p-NA substrate); type: biochemical; settings: colorimetric
Procedure: The peptidyl-proline isomerase activity (PPase) was determined by using a PPase-chymotrypsin coupled assay with suc-AAPF-p-NA as substrated and colorimeric detection adapted from Liu et al., AnalBioChem, 2006 p 100.

[2] = biological target: T1, CypD; assay: CypD binding assay (competition fluorescence polarisation with fluorescein-labelled cyclosporin)
Procedure: The binding capacity of the compounds were measured using a competition Fluorescence-Polarisation based assay with fluorescine labelled cyclosporin. The protocol used was adapted from Hausch et al, Med Chem lett 2010, p 536.

[3] = biological target: T1, CypD; assay: SPR binding; settings: SPR surface; read-out: SPR CypD (KDSS)
From the text: Binding was confirmed on an SPR surface using a protocol adapted from Mori et al., J. Biomolecular Screening, 2009 p 419.

T1 sequence (P30405 30-207): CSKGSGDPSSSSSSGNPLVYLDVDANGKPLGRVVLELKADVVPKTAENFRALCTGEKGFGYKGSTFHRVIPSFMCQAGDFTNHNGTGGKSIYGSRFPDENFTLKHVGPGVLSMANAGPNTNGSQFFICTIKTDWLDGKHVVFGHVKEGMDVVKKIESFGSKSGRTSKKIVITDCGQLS

SMILES	IC50 [1] [µM]	IC50 [2] [µM]	Kd [3] [µM]
CCN1Cc2cc(CNC(=O)NCC(=O)N3CCCC3c3ccccn3)ccc2NCCC1=O (stereo not shown) [Compound 36, 1-(5-Ethyl-4-oxo-1,2,3,4,5,6-hexahydro-benzo[b][1,5]diazocin-8-ylmethyl)-3-[2-oxo-2-(2-pyridin-2-yl-pyrrolidin-1-yl)-ethyl]-urea]	–	1 to 100	1 to 100
O=C(NCC(=O)N1CCC[C@@H]1C(F)(F)F)NCc1ccc2c(c1)[C@@H]1C[C@H](N2)[C@H](O)CO1 [Compound 37, 1-(((2S,3S,6S)-3-hydroxy-2,3,4,6-tetrahydro-1H-2,6-methanobenzo[c][1,5]oxazocin-8-yl)methyl)-3-(2-oxo-2-((R)-2-(trifluoromethyl)pyrrolidin-1-yl)ethyl)urea]	–	1 to 100	1 to 100
C[C@H](c1ccccc1)N(C)C(=O)CNC(=O)NCc1ccc2c(c1)[C@H]1C[C@@H](N2)[C@H](O)CO1 [Compound 38, 2-(3-(((2R,3S,6R)-3-hydroxy-2,3,4,6-tetrahydro-1H-2,6-methanobenzo[c][1,5]oxazocin-8-yl)methyl)ureido)-N-methyl-N—((R)-1-phenylethyl)acetamide]	–	1 to 100	1 to 100
CCn1nnc(CNC(=O)NCc2ccc3c(c2)[C@H]2C[C@@H](N3)[C@H](O)CO2)n1 [Compound 39, 1-((2-ethyl-2H-tetrazol-5-yl)methyl)-3-(((2R,3S,6R)-3-hydroxy-2,3,4,6-tetrahydro-1H-2,6-methanobenzo[c][1,5]oxazocin-8-yl)methyl)urea]	–	1 to 100	1 to 100

Results, then the molecule that gave them:

IC50 [1] [µM]	IC50 [2] [µM]	Kd [3] [µM]	SMILES
1 to 100	1 to 100	1 to 100	O=C(NCC(=O)N1CCCC1)NCc1ccc2c(c1)[C@H]1C[C@@H](N2)[C@H](O)CO1 [Compound 12, 1-((1R,9R,10S)-10-Hydroxy-12-oxa-8-aza-tricyclo[7.3.1.02,7]trideca-2(7),3,5-trien-4-ylmethyl)-3-(2-oxo-2-pyrrolidin-1-yl-ethyl)-urea]
–	1 to 100	1 to 100	CCN1Cc2cc(CCC(=O)N[C@H](C(=O)N3CCCC3)c3ccccc3)ccc2NCCC1=O [Compound 32, 3-(5-Ethyl-4-oxo-1,2,3,4,5,6-hexahydro-benzo[b][1,5]diazocin-8-yl)-N—((S)-2-oxo-1-phenyl-2-pyrrolidin-1-yl-ethyl)-propionamide]
–	1 to 100	1 to 100	CCN1Cc2cc(CCC(=O)NCC(=O)N3CCC[C@@H]3CO)ccc2NCCC1=O [Compound 33, 3-(5-Ethyl-4-oxo-1,2,3,4,5,6-hexahydro-benzo[b][1,5]diazocin-8-yl)-N-[2-(®-2-hydroxymethyl-pyrrolidin-1-yl)-2-oxo-ethyl]-propionamide]
–	1 to 100	1 to 100	CCN1Cc2cc(CCC(=O)NCC(=O)N3CCC[C@H]3CO)ccc2NCCC1=O [Compound 34, 3-(5-Ethyl-4-oxo-1,2,3,4,5,6-hexahydro-benzo[b][1,5]diazocin-8-yl)-N-[2-((S)-2-hydroxymethyl-pyrrolidin-1-yl)-2-oxo-ethyl]-propionamide]
–	1 to 100	1 to 100	CCN1Cc2cc(CNC(=O)NCC(=O)N(C)[C@H](C)c3ccccc3)ccc2NCCC1=O [Compound 35, (R)-2-(3-((5-ethyl-4-oxo-1,2,3,4,5,6-hexahydrobenzo[b][1,5]diazocin-8-yl)methyl)ureido)-N-methyl-N-(1-phenylethyl)acetamide]
